Activity calls are given as the source filed them. The rule behind the calls is not given here.
Molecular target: not listed separately
Assay: Displacement of [3H]AMPA from AMPA receptor in rat brain membranes
Format: cell membranes, Membrane

Compound `CC(C)(C)c1onc(OCP(=O)(O)O)c1C[C@H](N)C(=O)O` has a Ki of 16 µM.

Molecular target: T1, Glutamate receptor 2 (Rattus norvegicus, UniProt P19491)
Assay: Displacement of [3H]AMPA from rat GluA2(Q) receptor flop isoform by TopCount method

T1 sequence (P19491 whole entry, canonical isoform): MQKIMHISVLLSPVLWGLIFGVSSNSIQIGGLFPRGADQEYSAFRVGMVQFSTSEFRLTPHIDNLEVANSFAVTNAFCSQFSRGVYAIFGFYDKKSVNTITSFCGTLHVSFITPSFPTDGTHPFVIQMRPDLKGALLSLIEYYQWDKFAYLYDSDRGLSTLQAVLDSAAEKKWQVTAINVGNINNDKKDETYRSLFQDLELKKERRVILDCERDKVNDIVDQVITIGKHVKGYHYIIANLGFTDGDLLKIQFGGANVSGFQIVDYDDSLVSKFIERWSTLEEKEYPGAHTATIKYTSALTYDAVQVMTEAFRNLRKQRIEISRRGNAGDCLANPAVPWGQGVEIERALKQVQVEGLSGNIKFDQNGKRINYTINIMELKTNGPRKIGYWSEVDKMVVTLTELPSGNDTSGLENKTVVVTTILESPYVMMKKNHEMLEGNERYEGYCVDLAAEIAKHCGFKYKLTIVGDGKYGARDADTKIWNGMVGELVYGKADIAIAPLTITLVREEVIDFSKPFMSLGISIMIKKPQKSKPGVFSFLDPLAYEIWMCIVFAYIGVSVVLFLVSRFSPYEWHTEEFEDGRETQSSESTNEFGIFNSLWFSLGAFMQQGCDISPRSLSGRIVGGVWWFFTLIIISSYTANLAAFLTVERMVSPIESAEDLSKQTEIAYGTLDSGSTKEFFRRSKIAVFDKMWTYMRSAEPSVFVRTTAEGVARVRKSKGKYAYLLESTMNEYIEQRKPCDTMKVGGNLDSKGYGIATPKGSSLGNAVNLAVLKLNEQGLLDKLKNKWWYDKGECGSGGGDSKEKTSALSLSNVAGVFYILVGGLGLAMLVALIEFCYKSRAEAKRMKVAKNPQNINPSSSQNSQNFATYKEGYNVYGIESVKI

`N[C@H](Cc1cc(-c2cc(O)ccc2O)c(Cl)c([N+](=O)[O-])c1)C(=O)O` showed a Ki of 1.74 µM.

Molecular target: not listed separately
Assay: Displacement of [3H]AMPA from AMPA receptor in rat brain membranes by scintillation counting method
Format: cell membranes, Membrane

Point of comparison: `NC(Cc1cc(-c2cccc(O)c2)cc([N+](=O)[O-])c1)C(=O)O` (racemic), Ki 8.2 µM. Against it:
- NC(Cc1cc(-c2ccc(O)cc2)c(Cl)c([N+](=O)[O-])c1)C(=O)O (racemic) — 2.8-fold higher, 23 µM
- NC(Cc1cc(-c2ccc(O)cc2)cc([N+](=O)[O-])c1)C(=O)O (racemic) — 2.6-fold higher, 21 µM
- NC(Cc1ccc([N+](=O)[O-])c(-c2ccc(O)cc2)c1)C(=O)O (racemic) — 7.8-fold higher, 64 µM
- NC(Cc1cc(Cl)c(O)c(-c2cccc(O)c2)c1)C(=O)O (racemic) — within 1.5-fold, 7.9 µM
- NC(Cc1ccc([N+](=O)[O-])c(-c2cccc(O)c2)c1)C(=O)O (racemic) — 2.6-fold higher, 21 µM
- NC(Cc1cc(-c2cncc(O)c2)c(Cl)c([N+](=O)[O-])c1)C(=O)O (racemic) — 4.1-fold lower, 2 µM
- NC(Cc1cc(-c2cccc(O)c2)c(Cl)c([N+](=O)[O-])c1)C(=O)O (racemic) — 2.6-fold lower, 3.1 µM
- Nc1c(-c2cccc(O)c2)cc(CC(N)C(=O)O)cc1[N+](=O)[O-] (racemic) — 1.7-fold higher, 14 µM
- NC(Cc1cc(-c2cc(O)ccc2O)c(Cl)c([N+](=O)[O-])c1)C(=O)O (racemic) — 8.9-fold lower, 0.92 µM
- NC(Cc1cc(Cl)cc(-c2cccc(O)c2)c1)C(=O)O (racemic) — within 1.5-fold, 9.3 µM
- NC(Cc1ccc(Cl)c(-c2ccc(O)cc2)c1)C(=O)O (racemic) — 7.9-fold higher, 65 µM
- NC(Cc1ccc(Cl)c(-c2cccc(O)c2)c1)C(=O)O (racemic) — within 1.5-fold, 9.2 µM
- Nc1ccc(CC(N)C(=O)O)cc1-c1cccc(O)c1 (racemic) — within 1.5-fold, 9.1 µM
- Nc1c(Cl)cc(CC(N)C(=O)O)cc1-c1cccc(O)c1 (racemic) — within 1.5-fold, 10 µM
- COc1c(Cl)cc(CC(N)C(=O)O)cc1-c1cccc(O)c1 (racemic) — higher, > 100 µM
- NC(Cc1cc(-c2cc(O)cc(F)c2)c(Cl)c([N+](=O)[O-])c1)C(=O)O (racemic) — 2.4-fold lower, 3.4 µM
- NC(Cc1cc(Cl)cc(-c2ccc(O)cc2)c1)C(=O)O (racemic) — 5.6-fold higher, 46 µM

Point of comparison: `NC(Cc1ccc([N+](=O)[O-])c(-c2ccc(O)cc2)c1)C(=O)O` (racemic), pKi 4.2. Against it:
- NC(Cc1cc(-c2ccc(O)cc2)c(Cl)c([N+](=O)[O-])c1)C(=O)O (racemic) — higher, 4.66
- NC(Cc1cc(-c2ccc(O)cc2)cc([N+](=O)[O-])c1)C(=O)O (racemic) — higher, 4.68
- NC(Cc1cc(Cl)c(O)c(-c2cccc(O)c2)c1)C(=O)O (racemic) — higher, 5.1
- NC(Cc1ccc([N+](=O)[O-])c(-c2cccc(O)c2)c1)C(=O)O (racemic) — higher, 4.67
- NC(Cc1cc(-c2cncc(O)c2)c(Cl)c([N+](=O)[O-])c1)C(=O)O (racemic) — higher, 5.7
- NC(Cc1cc(-c2cccc(O)c2)c(Cl)c([N+](=O)[O-])c1)C(=O)O (racemic) — higher, 5.52
- Nc1c(-c2cccc(O)c2)cc(CC(N)C(=O)O)cc1[N+](=O)[O-] (racemic) — higher, 4.84
- NC(Cc1cc(-c2cc(O)ccc2O)c(Cl)c([N+](=O)[O-])c1)C(=O)O (racemic) — higher, 6.04
- NC(Cc1cc(Cl)cc(-c2cccc(O)c2)c1)C(=O)O (racemic) — higher, 5.06
- NC(Cc1ccc(Cl)c(-c2ccc(O)cc2)c1)C(=O)O (racemic) — within 0.2 log units, 4.19
- NC(Cc1ccc(Cl)c(-c2cccc(O)c2)c1)C(=O)O (racemic) — higher, 5.04
- Nc1ccc(CC(N)C(=O)O)cc1-c1cccc(O)c1 (racemic) — higher, 5.05
- Nc1c(Cl)cc(CC(N)C(=O)O)cc1-c1cccc(O)c1 (racemic) — higher, 4.99
- NC(Cc1cc(-c2cccc(O)c2)cc([N+](=O)[O-])c1)C(=O)O (racemic) — higher, 5.09
- NC(Cc1cc(-c2cc(O)cc(F)c2)c(Cl)c([N+](=O)[O-])c1)C(=O)O (racemic) — higher, 5.47
- NC(Cc1cc(Cl)cc(-c2ccc(O)cc2)c1)C(=O)O (racemic) — within 0.2 log units, 4.34

Molecular target: T1, Glutamate receptor 2
Assay: Displacement of [3H]AMPA from rat GluA2(R) receptor flip isoform expressed in sf9 insect cell membranes by TopCount method

Point of comparison: `N[C@H](Cc1ccc(Cl)c(-c2cccc(O)c2)c1)C(=O)O`, Ki 21.9 µM. Against it:
- N[C@H](Cc1cc(Cl)cc(-c2cccc(O)c2)c1)C(=O)O — within 1.5-fold, 20.7 µM
- N[C@@H](Cc1ccc(Cl)c(-c2cccc(O)c2)c1)C(=O)O — higher, > 100 µM
- N[C@@H](Cc1cc(-c2cc(O)ccc2O)c(Cl)c([N+](=O)[O-])c1)C(=O)O — within 1.5-fold, 18.4 µM
- N[C@H](Cc1cc(-c2cc(O)ccc2O)c(Cl)c([N+](=O)[O-])c1)C(=O)O — 13-fold lower, 1.71 µM
- N[C@@H](Cc1cc(Cl)cc(-c2cccc(O)c2)c1)C(=O)O — 1.9-fold higher, 40.8 µM

Molecular target: Glutamate receptor 3 (Rattus norvegicus, UniProt P19492)
Assay: Displacement of [3H]AMPA from rat GluA3 receptor flip isoform expressed in sf9 insect cell membranes by TopCount method

Chain of Glutamate receptor 3 (P19492 whole entry, canonical isoform): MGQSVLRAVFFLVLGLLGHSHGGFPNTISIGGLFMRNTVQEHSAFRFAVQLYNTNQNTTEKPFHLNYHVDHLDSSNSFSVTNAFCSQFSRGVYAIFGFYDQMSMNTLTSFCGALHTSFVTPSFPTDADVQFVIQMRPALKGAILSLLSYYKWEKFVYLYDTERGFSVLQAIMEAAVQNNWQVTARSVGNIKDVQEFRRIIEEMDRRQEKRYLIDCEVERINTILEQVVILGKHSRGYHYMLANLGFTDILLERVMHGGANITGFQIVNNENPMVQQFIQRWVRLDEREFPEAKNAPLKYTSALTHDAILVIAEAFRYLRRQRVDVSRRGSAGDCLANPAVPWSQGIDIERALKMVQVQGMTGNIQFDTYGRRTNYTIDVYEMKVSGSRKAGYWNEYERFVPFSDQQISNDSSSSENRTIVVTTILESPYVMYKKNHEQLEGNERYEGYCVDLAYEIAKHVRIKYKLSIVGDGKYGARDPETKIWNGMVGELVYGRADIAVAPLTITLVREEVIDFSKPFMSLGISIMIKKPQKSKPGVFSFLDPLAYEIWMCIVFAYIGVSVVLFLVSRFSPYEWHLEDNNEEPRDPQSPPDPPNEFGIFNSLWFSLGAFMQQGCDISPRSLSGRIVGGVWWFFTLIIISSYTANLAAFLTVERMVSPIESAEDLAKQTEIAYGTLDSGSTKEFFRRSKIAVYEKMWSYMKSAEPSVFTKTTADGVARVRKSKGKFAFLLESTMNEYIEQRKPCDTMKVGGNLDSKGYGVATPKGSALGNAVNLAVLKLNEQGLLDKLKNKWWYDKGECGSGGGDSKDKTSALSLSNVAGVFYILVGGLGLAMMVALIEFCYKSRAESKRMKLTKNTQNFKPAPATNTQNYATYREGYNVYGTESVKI

Point of comparison: `N[C@H](Cc1cc(-c2cc(O)ccc2O)c(Cl)c([N+](=O)[O-])c1)C(=O)O`, Ki 7.01 µM. Against it:
- N[C@H](Cc1cc(Cl)cc(-c2cccc(O)c2)c1)C(=O)O — higher, > 100 µM
- N[C@@H](Cc1ccc(Cl)c(-c2cccc(O)c2)c1)C(=O)O — higher, > 100 µM
- N[C@@H](Cc1cc(-c2cc(O)ccc2O)c(Cl)c([N+](=O)[O-])c1)C(=O)O — higher, > 100 µM
- N[C@H](Cc1ccc(Cl)c(-c2cccc(O)c2)c1)C(=O)O — higher, > 100 µM
- N[C@@H](Cc1cc(Cl)cc(-c2cccc(O)c2)c1)C(=O)O — higher, > 100 µM

Molecular target: Glutamate receptor 2 (Rattus norvegicus) (UniProt P19491)
Assay: Agonist activity at rat GluA2(Q) receptor flop isoform expressed in Xenopus laevis oocytes at 300 uM by two electrode voltage clamp method
Format: cell-based

Chain of Glutamate receptor 2 (Rattus norvegicus) (P19491 whole entry, canonical isoform): as the sequence (P19491 whole entry, canonical isoform) above

With `N[C@H](Cc1cc(-c2cc(O)ccc2O)c(Cl)c([N+](=O)[O-])c1)C(=O)O` the Activity was “inactive”.

Species on record: Rattus norvegicus
Assay: Selectivity ratio of Ki for rat GluA3 receptor flip isoform expressed in sf9 insect cell membranes to Ki for rat GluA2(R) receptor flip isoform expressed in sf9 insect cell membranes

Compound `N[C@H](Cc1cc(-c2cc(O)ccc2O)c(Cl)c([N+](=O)[O-])c1)C(=O)O` has a Ratio Ki of 4.

Molecular target: not listed separately
Assay: Displacement of [3H]KA from KA receptor in rat brain membranes by scintillation counting method
Format: cell membranes, Membrane

Point of comparison: `NC(Cc1cc(-c2cc(O)ccc2O)c(Cl)c([N+](=O)[O-])c1)C(=O)O` (racemic), Ki 15 µM. Against it:
- NC(Cc1cc(-c2ccc(O)cc2)c(Cl)c([N+](=O)[O-])c1)C(=O)O (racemic) — higher, > 100 µM
- NC(Cc1cc(-c2ccc(O)cc2)cc([N+](=O)[O-])c1)C(=O)O (racemic) — higher, > 100 µM
- CC(C)(C)c1onc(OCP(=O)(O)O)c1C[C@H](N)C(=O)O — higher, > 100 µM
- NC(Cc1cc(Cl)c(Cl)c(-c2cncc(O)c2)c1)C(=O)O (racemic) — higher, > 100 µM
- NC(Cc1ccc([N+](=O)[O-])c(-c2ccc(O)cc2)c1)C(=O)O (racemic) — higher, > 100 µM
- NC(Cc1cc(Cl)c(O)c(-c2cccc(O)c2)c1)C(=O)O (racemic) — higher, > 100 µM
- NC(Cc1ccc([N+](=O)[O-])c(-c2cccc(O)c2)c1)C(=O)O (racemic) — higher, > 100 µM
- NC(Cc1cc(-c2cncc(O)c2)c(Cl)c([N+](=O)[O-])c1)C(=O)O (racemic) — higher, > 100 µM
- NC(Cc1cc(-c2cccc(O)c2)c(Cl)c([N+](=O)[O-])c1)C(=O)O (racemic) — higher, > 100 µM
- NC(Cc1cccc(-c2cccc(O)c2)c1)C(=O)O (racemic) — higher, > 100 µM
- Nc1c(-c2cccc(O)c2)cc(CC(N)C(=O)O)cc1[N+](=O)[O-] (racemic) — higher, > 100 µM
- NC(Cc1cc(Cl)c(Cl)c(-c2cccc(O)c2)c1)C(=O)O (racemic) — higher, > 100 µM
- NC(Cc1cc(Cl)cc(-c2cccc(O)c2)c1)C(=O)O (racemic) — higher, > 100 µM
- NC(Cc1ccc(Cl)c(-c2ccc(O)cc2)c1)C(=O)O (racemic) — higher, > 100 µM
- NC(Cc1ccc(Cl)c(-c2cccc(O)c2)c1)C(=O)O (racemic) — higher, > 100 µM
- Nc1ccc(CC(N)C(=O)O)cc1-c1cccc(O)c1 (racemic) — higher, > 100 µM
- Nc1c(Cl)cc(CC(N)C(=O)O)cc1-c1cccc(O)c1 (racemic) — higher, > 100 µM
- COc1c(Cl)cc(CC(N)C(=O)O)cc1-c1cccc(O)c1 (racemic) — higher, > 100 µM
- NC(Cc1cc(-c2cccc(O)c2)cc([N+](=O)[O-])c1)C(=O)O (racemic) — higher, > 100 µM
- NC(Cc1cc(-c2cc(O)cc(F)c2)c(Cl)c([N+](=O)[O-])c1)C(=O)O (racemic) — 1.7-fold higher, 26 µM
- NC(Cc1cc(Cl)cc(-c2ccc(O)cc2)c1)C(=O)O (racemic) — higher, > 100 µM

Point of comparison: `NC(Cc1cc(-c2cc(O)cc(F)c2)c(Cl)c([N+](=O)[O-])c1)C(=O)O` (racemic), pKi 4.58. Against it:
- NC(Cc1cc(-c2cc(O)ccc2O)c(Cl)c([N+](=O)[O-])c1)C(=O)O (racemic) — higher, 4.83

Molecular target: Glutamate NMDA receptor
Assay: Displacement of [3H]CGP39653 from NMDA receptor in rat brain membranes by scintillation counting method
Format: cell membranes, Membrane

`NC(Cc1cc(-c2ccc(O)cc2)c(Cl)c([N+](=O)[O-])c1)C(=O)O` (racemic) and `NC(Cc1cc(-c2cccc(O)c2)c(Cl)c([N+](=O)[O-])c1)C(=O)O` (racemic) cannot be ordered by Ki: > 100 µM for the first, > 100 µM for the second.

`NC(Cc1cc(-c2ccc(O)cc2)cc([N+](=O)[O-])c1)C(=O)O` (racemic) and `NC(Cc1cc(-c2cccc(O)c2)cc([N+](=O)[O-])c1)C(=O)O` (racemic) cannot be ordered by Ki: > 100 µM for the first, > 100 µM for the second.

`NC(Cc1ccc([N+](=O)[O-])c(-c2ccc(O)cc2)c1)C(=O)O` (racemic) and `NC(Cc1ccc([N+](=O)[O-])c(-c2cccc(O)c2)c1)C(=O)O` (racemic) cannot be ordered by Ki: > 100 µM for the first, > 100 µM for the second.

`NC(Cc1cc(Cl)c(O)c(-c2cccc(O)c2)c1)C(=O)O` (racemic) and `Nc1c(Cl)cc(CC(N)C(=O)O)cc1-c1cccc(O)c1` (racemic) cannot be ordered by Ki: > 100 µM for the first, > 100 µM for the second.

`NC(Cc1cc(-c2cncc(O)c2)c(Cl)c([N+](=O)[O-])c1)C(=O)O` (racemic) and `NC(Cc1cc(-c2cc(O)cc(F)c2)c(Cl)c([N+](=O)[O-])c1)C(=O)O` (racemic) cannot be ordered by Ki: > 100 µM for the first, > 100 µM for the second.

`Nc1c(-c2cccc(O)c2)cc(CC(N)C(=O)O)cc1[N+](=O)[O-]` (racemic) and `Nc1ccc(CC(N)C(=O)O)cc1-c1cccc(O)c1` (racemic) cannot be ordered by Ki: > 100 µM for the first, > 100 µM for the second.

`NC(Cc1cc(-c2cc(O)ccc2O)c(Cl)c([N+](=O)[O-])c1)C(=O)O` (racemic) and `COc1c(Cl)cc(CC(N)C(=O)O)cc1-c1cccc(O)c1` (racemic) cannot be ordered by Ki: > 100 µM for the first, > 100 µM for the second.

`NC(Cc1cc(Cl)cc(-c2cccc(O)c2)c1)C(=O)O` (racemic) and `NC(Cc1cc(Cl)cc(-c2ccc(O)cc2)c1)C(=O)O` (racemic) cannot be ordered by Ki: > 100 µM for the first, > 100 µM for the second.

`NC(Cc1ccc(Cl)c(-c2ccc(O)cc2)c1)C(=O)O` (racemic) and `NC(Cc1ccc(Cl)c(-c2cccc(O)c2)c1)C(=O)O` (racemic) cannot be ordered by Ki: > 100 µM for the first, > 100 µM for the second.

Molecular target: Glutamate receptor 2 (Rattus norvegicus) (UniProt P19491)
Assay: Antagonist activity at rat GluA2(Q) receptor flop isoform expressed in Xenopus laevis oocytes assessed as inhibition of (S)-glutamate-induced channel activation by two electrode voltage clamp method
Format: cell-based

With `N[C@H](Cc1cc(-c2cc(O)ccc2O)c(Cl)c([N+](=O)[O-])c1)C(=O)O` the Kb was 2.13 µM.

In the case of `N[C@H](Cc1cc(-c2cc(O)ccc2O)c(Cl)c([N+](=O)[O-])c1)C(=O)O`, the inhibition is reported as “Dose-dependent effect”.

Source: ChEMBL document CHEMBL4190283, “Pharmacological characterization and binding modes of novel racemic and optically active phenylalanine-based antagonists of AMPA receptors” (Eur J Med Chem, 2017)
